Earlier results as cited in patent US11766458B2, “Method and a dietary composition on regulation, treatment, and prevention of obesity” (priority 2021, dated 2023).

Experiments:
[1] = Nutrition & Diabetes volume 11, Article number: 3, 2021
[2] = system: DIO C57BL/6 mice

| SMILES | Gastric emptying [1] | GLP-1 secretion ([2]; oral 1 g/kg 15 minutes before OGTT) | Glucose resistance ([2]; oral 1 g/kg 15 minutes before OGTT (2 g glucose/kg bw)) | Energy intake (food diary) (after L-arginine treatment) | Release of plasma PYY (healthy people, oral 17.1 mmol, after unlimited meals, p<0.001) | Release of plasma GLP-1 (healthy people, oral 17.1 mmol, after unlimited meals, p<0.05) |
| --- | --- | --- | --- | --- | --- | --- |
| N[C@@H](Cc1c[nH]c2ccccc12)C(=O)O [tryptophan] | delays the gastric emptying |  |  |  |  |  |
| N=C(N)NCCC[C@H](N)C(=O)O [L-arginine] |  | induces GLP-1 secretion | improves glucose resistance | less energy intake | stimulated | stimulated |
